Experimental data from patent US10548979B2, “Light-activated compositions and methods using the same” (THE REGENTS OF THE UNIVERSITY OF COLORADO, A BODY CORPORATE, priority 2015, dated 2020).

Columns and labels:
MDR S. typhimurium = assay: Antibiotic IC50 measurement (Resazurin) in clinical isolates; format: cell-based, Salmonella typhimurium; details: 24 h growth
Procedure: Overnight cultures of clinical isolates were diluted to a 0.5 McFarland standard in CAMHB with respective test concentration of antibiotic. […] The slope of Resazurin fluorescence was used a quantitative measure of cell metabolism.

MDR E. coli = assay: as above; format: cell-based, Escherichia coli; details: 24 h growth
Procedure: Overnight cultures of clinical isolates were diluted to a 0.5 McFarland standard in CAMHB with respective test concentration of antibiotic. Cultures were grown for 24 h at 37° C. with 225 rpm shaking. After 24 h of growth, Resazurin sodium salt (Sigma Aldrich) solution was added and the reaction was monitored for fluorescence measuring every 5 min for 4 h at 37° C. with 225 rpm shaking using 485/610 nm filters. The slope of Resazurin fluorescence was used a quantitative measure of cell metabolism. The IC50 was determined as the concentration of antibiotic which caused a 50% reduction in slope compared to the same biological replicate in no treatment.

ESBL K. pneumoniae = assay: Combinatorial experiments CdTe-2.4 with antibiotic, growth (optical density); format: cell-based, Klebsiella pneumoniae; details: breakpoint amount of streptomycin, without CdTe-2.4
Procedure: Five antibiotic concentrations were selected for each strain, so that the levels tested would be below the IC50, near the CLSI or defined breakpoint, and near the IC50. Concentrations of CdTe-2.4 were held constant for all strains at 12.5 nM, 25 nM, and 50 nM. Using these metrics, three biological replicates were tested from each strain with 15 test conditions as well as monotherapy controls and a no treatment condition. Clinical strains were diluted 1:100 from overnight into test condition and grown at 37° C. with 225 rpm. Optical density was measured every 30 min for the first 3 h and every hour subsequently until 8 h. After 8 h of growth, Resazurin sodium salt solution was added and the reaction was monitored for fluorescence measuring every 5 min for 4 h at 37° C. with 225 rpm shaking using 485/610 nm filters. The slope of Resazurin fluorescence was used a quantitative measure of cell metabolism.

Compound | sensitivity to antibiotic (IC50 versus CLSI or breakpoint) (MDR S. typhimurium) | sensitivity to antibiotic (IC50 versus CLSI or breakpoint) (MDR E. coli) | effect of antibiotic alone on growth (ESBL K. pneumoniae)
O=C(N[C@H](CO)[C@H](O)c1ccc([N+](=O)[O-])cc1)C(Cl)Cl [chloramphenicol] | sensitive | sensitive | 
[H]/N=C(/N)N[C@H]1[C@H](O)[C@@H](O)[C@H](O[C@@H]2O[C@@H](C)[C@](O)(C=O)[C@H]2O[C@@H]2O[C@@H](CO)[C@H](O)[C@@H](O)[C@@H]2NC)[C@@H](N/C(N)=N\[H])[C@@H]1O [streptomycin] |  |  | previously ineffective
